Earlier results, collected in PubChem BioAssay AID1259409 (Chemical Carcinogenesis Research Information System (CCRIS), 2018).

Tested on: rodent chemically induced tumor inhibition, incidence and multiplicity
Experiment: CCRIS tumor inhibitor studies

Question: Which results are given for `CC(C)CC(CN[C@@H](CC(C)C)C(N)=O)NC(=O)[C@H](Cc1cnc[nH]1)NC(=O)CNC(=O)[C@@H](NC(=O)C(C)NC(=O)[C@H](Cc1c[nH]c2ccccc12)NC(=O)[C@H](CCC(N)=O)NC(=O)[C@H]1Cc2c([nH]c3ccccc23)CN1)C(C)C` (stereo partly drawn)?
Answer: tumour outcome (control, treated, inhibition, significance) (Carcinogen: N-NITROSOBIS(2-OXOPROPYL)AMINE, 60599-38-4, Dose [Inhibitor]: 0, 5 UG/D FROM OSMOTIC PUMP FOR 2 MO, Route [Inhibitor]: SUBCUTANEOUS IMPLANT, Species: HAMSTER, Strain/Sex: SYRIAN/FEMALE, Target Tissue: Type of Lesion: PANCREAS: ADENOCARCINOMA): 10/11 (91%), 7/11 (64%), 30%, not calculated; tumour outcome (control, treated, inhibition, significance) (Carcinogen: N-NITROSOBIS(2-OXOPROPYL)AMINE, 60599-38-4, Dose [Inhibitor]: 0, 20 UG/D BEGINNING 18 WK POST CARCINOGEN TREATMENT AND CONTINUING FOR 8 WK (STUDY DURATION: 32 WK), Route [Inhibitor]: SUBCUTANEOUS, Species: HAMSTER, Strain/Sex: SYRIAN/FEMALE, Target Tissue: Type of Lesion: PANCREAS: ADENOCARCINOMA, Dose [Carcinogen]: TREATMENT FOR 6 WK (DOSE NOT STATED), Promoter: NONE USED): 12/12 (100%), 9/12 (75%), 25%, not significant; tumour outcome (control, treated, inhibition, significance) (Carcinogen: N-NITROSOBIS(2-OXOPROPYL)AMINE, 60599-38-4, Dose [Inhibitor]: 0, 20 UG/D FROM OSMOTIC PUMP FOR 2 MO, Route [Inhibitor]: SUBCUTANEOUS IMPLANT, Species: HAMSTER, Strain/Sex: SYRIAN/FEMALE, Target Tissue: Type of Lesion: PANCREAS: ADENOCARCINOMA, Promoter: NONE USED): 12/12 (100%), 6/12 (50%), 50%, not calculated; tumour outcome (control, treated, inhibition, significance) (Carcinogen: N-NITROSOBIS(2-OXOPROPYL)AMINE, 60599-38-4, Dose [Inhibitor]: 0, 30 UG/D BEGINNING 18 WK POST CARCINOGEN TREATMENT AND CONTINUING FOR 8 WK (STUDY DURATION: 32 WK), Route [Inhibitor]: SUBCUTANEOUS, Species: HAMSTER, Strain/Sex: SYRIAN/FEMALE, Target Tissue: Type of Lesion: PANCREAS: ADENOCARCINOMA, Dose [Carcinogen]: TREATMENT FOR 6 WK (DOSE NOT STATED), Promoter: NONE USED): 11/12 (92%), 8/12 (67%), 27%, not significant; tumour outcome (control, treated, inhibition, significance) (Carcinogen: N-NITROSOBIS(2-OXOPROPYL)AMINE, 60599-38-4, Dose [Inhibitor]: 0, 30 UG/D FOR 2 MO, Route [Inhibitor]: SUBCUTANEOUS, Species: HAMSTER, Strain/Sex: SYRIAN/FEMALE, Target Tissue: Type of Lesion: PANCREAS: ADENOCARCINOMA): 11/13 (85%), 12/13 (92%), -8%, not calculated; tumour outcome (control, treated, inhibition, significance) (Carcinogen: N-NITROSOBIS(2-OXOPROPYL)AMINE, 60599-38-4, Dose [Inhibitor]: 0, 60 UG/D BEGINNING 18 WK POST CARCINOGEN TREATMENT AND CONTINUING FOR 8 WK (STUDY DURATION: 32 WK), Route [Inhibitor]: SUBCUTANEOUS, Species: HAMSTER, Strain/Sex: SYRIAN/FEMALE, Target Tissue: Type of Lesion: PANCREAS: ADENOCARCINOMA, Dose [Carcinogen]: TREATMENT FOR 6 WK (DOSE NOT STATED), Promoter: NONE USED): 12/12 (100%), 2/12 (17%), 83%, p<0.01

Question: With `CC(C)(C)c1cc(Cc2cc(C(C)(C)C)c(O)c(C(C)(C)C)c2)cc(C(C)(C)C)c1O` as the molecule, how does the “tumour outcome (control, treated, inhibition, significance)” value (Carcinogen: BENZO[A]PYRENE, 50-32-8, Dose [Inhibitor]: 0.03 MMOL/G OF DIET DAILY STARTING 7 D BEFORE AND CONTINUING THROUGH 3 D AFTER CARCINOGEN TREATMENT FOLLOWED BY OBSERVAT, Route [Inhibitor]: ORAL, Species: MOUSE, Strain/Sex: ICR/FEMALE, Target Tissue: Type of Lesion: FORESTOMACH: NEOPLASM, Dose [Carcinogen]: 1 MG IN 0.2 ML CORN OIL 2/WK FOR 4 WK, Promoter: NONE USED) read?
Answer: Its value is 94%, 100%, -6%, not significant.

Question: With `O=c1c(-c2ccc(O)cc2)coc2cc(O)cc(O)c12` as the molecule, how does the “tumour outcome (control, treated, inhibition, significance)” value (Carcinogen: 7,12-DIMETHYLBENZ[A]ANTHRACENE (57-97-6), Dose [Inhibitor]: 140 MG/KG DIET FOR 17 WKS (STUDY DURATION: 17 WKS), Route [Inhibitor]: DIET, Species: RAT, Strain/Sex: SPRAGUE-DAWLEY/FEMALE (20,18)/(20,19), Target Tissue: Type of Lesion: MAMMARY, Dose [Carcinogen]: 12.5 MG ONCE 1 WK AFTER START OF DIET (STUDY DURATION: 17 WKS)) read?
Answer: Its value is 95%, 85%, 11%, p=0.408.

Question: What about the “tumour outcome (control, treated, inhibition, significance)” value (Carcinogen: 7,12-DIMETHYLBENZ[A]ANTHRACENE [57-97-6], Dose [Inhibitor]: 20 UG/L IN 0.05 ML PEANUT OIL 2X/WK FOR 2 WK BEGINNING AT 7 D OF AGE (STUDY DURATION: 24 WK), Route [Inhibitor]: SUBCUTANEOUS, Species: RAT, Strain/Sex: SPRAGUE-DAWLEY/FEMALE, Target Tissue: Type of Lesion: MAMMARY GLAND: TUMOR, Dose [Carcinogen]: 10 MG IN 1 ML PEANUT OIL ONCE AT 45 D OF AGE (STUDY DURATION: 24 WK), Promoter: NONE) of the same molecule?
Answer: The value was 17/30 (57%), 13/30 (43%), 25%, not significant.

Question: What about the “tumour outcome (control, treated, inhibition, significance)” value (Carcinogen: 7,12-DIMETHYLBENZ[A]ANTHRACENE, 57-97-6, Dose [Inhibitor]: 0, 25 PPM IN DIET FOR 50 WK BEGINNING 1 WK POST-CARCINOGEN DOSE (STUDY DURATION: 51 WK), Route [Inhibitor]: ORAL, Species: RAT, Strain/Sex: SPRAGUE-DAWLEY/FEMALE, Target Tissue: Type of Lesion: OVARY: ADENOCARCINOMA, Dose [Carcinogen]: 0.01 ML OF 0.5% DMBA IN OLIVE OIL INTO THE LEFT OVARY, ONCE, UNDER PENTOBARBITAL ANESTHESIA, Promoter: NONE USED) of the same molecule?
Answer: The value was 7/20 (35%), 1/20 (5%), 86%, p=0.02.

Question: And the “tumour outcome (control, treated, inhibition, significance)” value (Carcinogen: 7,12-DIMETHYLBENZ[A]ANTHRACENE, 57-97-6, Dose [Inhibitor]: 0, 250 PPM IN DIET FOR 50 WK BEGINNING 1 WK POST-CARCINOGEN DOSE (STUDY DURATION: 51 WK), Route [Inhibitor]: ORAL, Species: RAT, Strain/Sex: SPRAGUE-DAWLEY/FEMALE, Target Tissue: Type of Lesion: OVARY: ADENOCARCINOMA, Dose [Carcinogen]: 0.01 ML OF 0.5% DMBA IN OLIVE OIL INTO THE LEFT OVARY, ONCE, UNDER PENTOBARBITAL ANESTHESIA, Promoter: NONE USED)?
Answer: Its value is 7/20 (35%), 0/20 (0%), 100%, p=0.0042.

Question: And the “tumour outcome (control, treated, inhibition, significance)” value (Carcinogen: 7,12-DIMETHYLBENZ[A]ANTHRACENE, 57-97-6, Dose [Inhibitor]: 0, 500 UG/G BW ONCE ON DAYS 16, 18 AND 20 OF AGE (STUDY DURATION: 200 D), Route [Inhibitor]: SUBCUTANEOUS, Species: RAT, Strain/Sex: SPRAGUE-DAWLEY/FEMALE, Target Tissue: Type of Lesion: MAMMARY GLAND: TUMOR, Dose [Carcinogen]: 80 UG/G BW IN SESAME OIL ONCE AT 50 DAYS OF AGE, Promoter: NONE USED)?
Answer: The value was 92%, 85%, 8%, not significant.

Question: What about the outcome (Carcinogen: Dimethylbenzanthracene, 57-97-6, Dose [Inhibitor]: 10 mg/kg bw/day, suspended in distilled water daily by gavage, dose duration 12 wk, study duration 18 wk, Route [Inhibitor]: Oral, Species: Hamster, Strain/Sex: Syrian golden/Male, Target Tissue: Type of Lesion: Oral cavity, Dose [Carcinogen]: 100 ul of 0.5% DMBA in mineral oil applied with a paint brush 3 times/wk for 6 wk, Promoter: None) of the same molecule?
Answer: Its outcome is 15/28 (53%), 11/27 (40.7%), not significant.

Question: And the “tumour outcome (control, treated, inhibition, significance)” value (Carcinogen: N-METHYL-N'-NITRO-N-NITROSOGUANADINE, 70-25-7, Dose [Inhibitor]: 0, 15 MG/KG 1/2 D FOR 26 WK BEGINNING 1 WK POST CARCINOGEN TREATMENT (STUDY DURATION: 52 WK), Route [Inhibitor]: SUBCUTANEOUS, Species: RAT, Strain/Sex: WISTAR/MALE, Target Tissue: Type of Lesion: STOMACH: ADENOCARCINOMA, Dose [Carcinogen]: 25 UG/ML IN DRINKING WATER FOR 25 WK, Promoter: SODIUM CHLORIDE, 7647-14-5)?
Answer: Its value is 18/20 (90%), 12/20 (60%), 33%, not significant.

Question: What about the “tumour outcome (control, treated, inhibition, significance)” value (Carcinogen: N-METHYL-N-NITROSOUREA, 684-93-5, Dose [Inhibitor]: 0, 1 MG/30 G BW 1/4 WK FOR 25 WK BEGINNING 5 WK POST CARCINOGEN TREATMENT (STUDY DURATION: 30 WK), Route [Inhibitor]: SUBCUTANEOUS, Species: MOUSE, Strain/Sex: ICR/FEMALE, Target Tissue: Type of Lesion: UTERUS (LEFT): ADENOCARCINOMA, Dose [Carcinogen]: 0.1 MG/KG BW INJECTED INTO LEFT UTERINE TUBE ONCE) of the same molecule?
Answer: The value was 3/26 (11%), 0/15 (0%), 100%, not significant.

Question: What about the “tumour outcome (control, treated, inhibition, significance)” value (Carcinogen: N-METHYL-N-NITROSOUREA, 684-93-5, Dose [Inhibitor]: 0, 1 MG/30 G BW 1/4 WK FOR 25 WK BEGINNING 5 WK POST CARCINOGEN TREATMENT (STUDY DURATION: 30 WK), Route [Inhibitor]: SUBCUTANEOUS, Species: MOUSE, Strain/Sex: ICR/FEMALE, Target Tissue: Type of Lesion: UTERUS (LEFT): ADENOCARCINOMA, Dose [Carcinogen]: 0.1 MG/KG BW INJECTED INTO LEFT UTERINE TUBE ONCE, Promoter: 17-BETA-ESTRADIOL, 50-28-2) of the same molecule?
Answer: Its value is 8/24 (33%), 0/19 (0%), 100%, p<0.01.

Question: What about the “tumour outcome (control, treated, inhibition, significance)” value (Carcinogen: N-METHYL-N;-NITRO-N-NITROSOGUANIDINE, 70-25-7, Carcinogen: N-METHYL-N;-NITRO-N-NITROSOGUANIDINE, 70-25-7, Dose [Inhibitor]: 0, 30 MG/KG 1/2 FOR 26 WK BEGINNING 1 WK POST CARCINOGEN TREATMENT (STUDY DURATION: 52 WK), Route [Inhibitor]: SUBCUTANEOUS, Species: RAT, Strain/Sex: WISTAR/MALE, Target Tissue: Type of Lesion: STOMACH: ADENOCARCINOMA, Dose [Carcinogen]: 25 UG/ML IN DRINKING WATER FOR 25 WK, Promoter: SODIUM CHLORIDE, 7647-14-5) of the same molecule?
Answer: Its value is 18/20 (90%), 7/19 (37%), 59%, p<0.05.

Question: For `O=c1[nH]cnc2[nH]ncc12`, which “tumour outcome (control, treated, inhibition, significance)” value (Carcinogen: N-BUTYL-N-(4-HYDROXYBUTYL)NITROSAMINE, 3817-11-6, Dose [Inhibitor]: 0.02% DIET DAILY FOR 34 WK STARTING AFTER CARCINOGEN TREATMENT (STUDY DURATION: 38 WK), Route [Inhibitor]: ORAL, Species: RAT, Strain/Sex: F344/MALE, Target Tissue: Type of Lesion: URINARY BLADDER: PAPILLOMA, Dose [Carcinogen]: 0.01% IN DRINKING WATER FOR 4 WK, Promoter: NONE USED) is on record?
Answer: Its value is 33%, 43%, -30%, not significant.
